Data as given in US11358931B2, “Selective androgen receptor modulators (SARMs) and uses thereof” (priority 2007, dated 2022).
Entries after “also recorded” stand apart in the source; their conditions may differ. Read-outs that look alike come from different tables or passages of the source.

Legend:
[1] = tested on: ovariectomized mature female rat; experiment: In vivo assay, ovariectomized mature female rats (12 weeks); details: for uterine weight to length ratio versus OVX controls: 0.03-3 mg/kg/day PO; for uterine weight to length ratio versus sham levels: high dose (3 mg/kg); for increase of gastrocnemius muscle mass / mean change in body weight: maximally effective dose 0.3 mg/kg PO; for clitoral weight, activity versus testosterone / clitoral gland weight versus sham: mid dose (0.3 mg/kg); for clitoral gland weight versus sham: 0.3 mg/kg
Description: In animal models of osteoporosis, androgens increase bone density and strength in male rats (Wakely et al., J Bone & Mineral Research 6: 325-330 (1991) and Vandenput et al., Calcified Tissue International 70: 170-175 (2002)) and female rats (Tobias et al., Am J Physiology 267: E853-E859 (1994) and Coxam et al., Bone 19: 107-114 (1996)). The ovariectomized mature female rat model was used to assess the effects of orally administered compounds provided herein, such as Compound 102, on bone as well as other efficacy and side-effect endpoints including muscle mass, fat mass and clitoral gland weight.
In this assay, approximately three-month old rats were acclimated in a vivarium for one week. After acclimation, rats were anesthetized with Avertin and the ovariectomy (OVX) was performed using the dorsal approach. For the sham procedure, the surgical procedure was conducted per protocol, and the ovaries exteriorized but not removed. After recovery, no further experimental manipulations were performed for seven weeks, at which point the rats were scanned by dual energy x-ray absorptiometry and sorted into experimental groups based upon femoral bone mineral content (BMC). Three dosages of Compound 102 were tested (0.03, 0.3 and 3 mg/kg/day PO). For comparison, ostarine, a known non-steroidal SARM, was tested at the same dosages (0.03, 0.3 and 3 mg/kg/day PO). In addition, reference compounds estradiol and testosterone were administered. Estradiol was administered subcutaneously to one ovariectomized group at a dose of 0.1 mg/kg/day and testosterone propionate was administered subcutaneously to another ovariectomized group at a dose of 1 mg/kg/day.
Treatment continued once daily for 12 weeks, at which point animals were euthanized and tissues were collected for further analysis. Animals received subcutaneous injections of fluorochrome markers for bone histomorphometric analysis. Alizarian Red S was prepared as a 3% solution and given at a dose of 30 mg/kg at the time of the baseline scan. Calcein was administered 10 days and 3 days prior to necropsy.
(§1) After the 14th dose, approximately 250 μL venous blood was collected via percutaneous jugular puncture from the rats at 0, 0.5, 1, 2, 4 and 6 hours post-dosing. The blood samples were collected into lithium-heparin tubes (Becton Dickinson, Franklin Lakes, N.J.). Plasma fractions were collected for pharmacokinetic analysis. Approximately 24 hours after the last dose, rats were sacrificed by cardiac exsanguination, and blood was collected into serum separator tubes (Becton Dickinson), and the gastrocnemius muscle, plantaris muscle, uterus, clitoral glands, clitoris and inguinal fat pads were isolated, blotted and weighed individually. Uterine weight measurements can be inaccurate in surgically ovariectomized rats due to the potential loss of uterine tissue at the tips of the uterine horns during removal of the ovaries. To minimize this variability, the length of the uterine horns was measured and the uterine weight was reported normalized to uterine length. The left femur and lumbar vertebra L5 were wrapped in saline-soaked gauze and stored at −20° C. for biochemical analysis. The right femur and lumbar vertebrae L3-L4 were collected and stored in 70% ethanol for histomorphometry. The right tibia was collected in formalin for histological analysis. The left tibia was collected on dry ice and stored at −20° C. for measurement of alkaline phosphatase activity.
Compound 102 and ostarine individually were formulated in a solution containing 5% Tween-80 polysorbate, 90% PEG-400 polyethylene glycol, and 5% polyvinylpyrrolidone K30. The mixture was stirred and sonicated in a water bath for 30 minutes until the compound dissolved into a solution. After sonication, 1% carboxymethyl cellulose (CMC) in water was added to the solution in a 9:1 ratio (9 parts CMC/water solution to 1 part PEG-400/Tween-80/PVP). Compound 102 and ostarine were administered orally in a volume of 4 mL/kg. […]

[2] = Pharmacokinetics in ovariectomized female rats (plasma, Day 14); format: in vivo, rat; details: OVX female rats; for AUC: female, po; for AUC / Cmax / Tmax: rat, plasma, PO
Experimental: as §1
Pharmacokinetic analysis was performed as described in Example 13.

[3] = OVX rats, high dose (3 mg/kg/day PO)
[4] = OVX rats, low dose (0.03 mg/kg/day PO)
[5] = 0.03 mg/kg, Day 14, 0.03 mg/kg, mean ± SD of n = 4, read-out: AUC6
[6] = 0.03 mg/kg, Day 14, 0.03 mg/kg, n = 4, 0 hr conc. substituted for 24 hr, read-out: AUC24
[7] = 0.3 mg/kg, Day 14, 0.3 mg/kg, mean ± SD of n = 4, read-out: AUC6
[8] = 0.3 mg/kg, Day 14, 0.3 mg/kg, n = 4, 0 hr conc. substituted for 24 hr, read-out: AUC24
[9] = 3 mg/kg, Day 14, 3 mg/kg, mean ± SD of n = 4, read-out: AUC6
[10] = 3 mg/kg, Day 14, 3 mg/kg, n = 4, 0 hr conc. substituted for 24 hr, read-out: AUC24
[11] = Day 14, 0.03 mg/kg, mean ± SD of n = 4
[12] = Day 14, 0.3 mg/kg, mean ± SD of n = 4
[13] = Day 14, 3 mg/kg, mean ± SD of n = 4
[14] = OVX rats, 12 weeks, 3-point bending

Structure (SMILES) | uterine weight to length ratio versus OVX controls [1] | uterine weight to length ratio versus sham levels ([1]; OVX rats) | clitoral gland weight [1, 3] | clitoral weight [1, 3] | clitoral gland weight [1, 4] | clitoral weight [1, 4] | uterine weight to length ratio versus sham operated controls [1, 4] | increase of gastrocnemius muscle mass ([1]; OVX rats) [%] | mean change in body weight ([1]; OVX rats) | clitoral weight, activity versus testosterone ([1]; OVX rats) | clitoral gland weight versus sham ([1]; OVX rats) | AUC [2, 5] [ng·h/mL] | AUC [2, 6] [ng·h/mL] | AUC [2, 7] [ng·h/mL] | AUC [2, 8] [ng·h/mL] | AUC [2, 9] [ng·h/mL] | AUC [2, 10] [ng·h/mL] | Cmax [2, 11] [ng/mL] | Tmax [2, 11] [min] | Cmax [2, 12] [ng/mL] | also measured
N#Cc1ccc(N2CCC[C@@H]2[C@@H](O)C(F)(F)F)cc1C(F)(F)F [Compound 102, R,R-4-(2-(1-Hydroxyl-2,2,2-trifluoroethyl)-pyrrolidinyl)-2-trifluoromethyl-benzonitrile] | increased uterine weight to length ratio above estrogen deficient OVX controls in a dose dependent manner | significantly (P<0.01) increased above sham levels | increased clitoral gland weight | significantly increased clitoral weight | Neither Compound 102 nor ostarine affected | did not affect clitoral weight | significantly (P<0.01) less than sham operated controls | 17 | +66 grams | significantly less activity versus testosterone | only slightly above the sham level; also recorded: did not quite achieve statistical significance versus sham | 56 ± 56 | 119 ± 90 | 51 ± 41 | 229 ± 289 | 404 ± 199 | 880 ± 326 | 39 ± 28 | 210 ± 114 | 40 ± 34 | increase of uterine weight to length ratio compared with ostarine ([1]; OVX rats, low and mid dose, P<0.01): significantly less than ostarine; uterine weight to length ratio versus sham operated controls ([1]; OVX rats, mid dose (0.3 mg/kg/day PO)): significantly (P<0.01) less than sham operated controls; Tmax [2, 12]: 30 ± 24 min; Cmax [2, 13]: 207 ± 87 ng/mL; Tmax [2, 13]: 30 min
C[C@](O)(COc1ccc(C#N)cc1)C(=O)Nc1ccc(C#N)c(C(F)(F)F)c1 [ostarine] | increased uterine weight to length ratio above estrogen deficient OVX controls in a dose dependent manner | significantly (P<0.01) increased above sham levels | increased clitoral gland weight | significantly increased clitoral weight | Neither Compound 102 nor ostarine affected | did not affect clitoral weight | significantly (P<0.01) less than sham operated controls | 10 | +65 grams | not significantly different from testosterone | only slightly above the sham level; also recorded: statistically significant (P<0.05) | 125 ± 22 | 552 ± 118 | 1080 ± 105 | 4140 ± 448 | 5040 ± 1300 | 20600 ± 3650 | 35 ± 7 | 156 ± 144 | 332 ± 40 | alkaline phosphatase activity from isolated tibiae ([1]; OVX rats, 12 weeks): significantly increased; whole femur bending stiffness [1, 14]: slightly more effectively than Compound 102; whole femur bending strength [1, 14]: slightly less effectively than Compound 102; cortical bone area ([1]; OVX rats, 12 weeks, histomorphometry): increased cortical bone area; serum osteocalcin ([1]; OVX rats, 12 weeks, versus vehicle-treated OVX controls): significantly suppressed; body weight gain from baseline compared to vehicle ([1]; OVX rats, 12 weeks, Compound 102/ostarine 0.03, 0.3, 3 mg/kg/day PO, testosterone propionate 1 mg/kg/day s.c.): significantly increased weight gain compared to vehicle at the mid and high dose levels; also recorded: at the low dose there was no significant difference from vehicle; inguinal fat pad weight ([1]; OVX rats, 12 weeks, any dose, estradiol 0.1, testosterone propionate 1 mg/kg/day s.c.): neither Compound 102 nor ostarine significantly affected inguinal fat pad weight at any dose; systemic exposure compared with Compound 102 ([2]; equal doses): significantly higher exposure; Tmax [2, 12]: 36 ± 12 min; Cmax [2, 13]: 1480 ± 429 ng/mL; Tmax [2, 13]: 66 ± 36 min
